Assay results reported in the supplement of paper PMC10307832.

Key:
Experiment in all cases: relative viability (nuclei count vs DMSO), 5 days (fraction); higher = more cells survive
NCI-H596 = tested on: NCI-H596
Outline: (§1)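 Lung cancer cell lines were pin-tool dosed in 1536-well plates on the day after seeding, with either a lone drug or a fixed anchor-drug dose plus five library-drug doses (not always all listed) in √10 steps. Nuclei were counted on 4× images after 5 days. Relative viability is the ratio of treated-well to vehicle-well nuclei counts, with each value a median of duplicate plates.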

COR-L23 = tested on: COR-L23
Outline: as §1

HCC-15 = tested on: HCC-15
Outline: as §1

LK-2 = tested on: LK-2
Outline: as §1

HCC-44 = tested on: HCC-44
Outline: as §1

NCI-H1437 = tested on: NCI-H1437
Outline: as §1

NCI-H1975 = tested on: NCI-H1975
Outline: as §1

A-427 = tested on: A-427
Outline: as §1

SW 900 = tested on: SW 900
Outline: as §1

NCI-H520 = tested on: NCI-H520
Outline: as §1

COR-L 105 = tested on: COR-L 105
Outline: as §1

NCI-H650 = tested on: NCI-H650
Outline: as §1

EKVX = tested on: EKVX
Outline: as §1

HCC-827 = tested on: HCC-827
Outline: as §1

NCI-H838 = tested on: NCI-H838
Outline: as §1

NCI-H1792 = tested on: NCI-H1792
Outline: as §1

NCI-H1666 = tested on: NCI-H1666
Outline: as §1

201T = tested on: 201T
Outline: as §1

SK-MES-1 = tested on: SK-MES-1
Outline: as §1

NCI-H522 = tested on: NCI-H522
Outline: as §1

NCI-H23 = tested on: NCI-H23
Outline: as §1

NCI-H441 = tested on: NCI-H441
Outline: as §1

HARA = tested on: HARA
Outline: as §1

LCLC-103H = tested on: LCLC-103H
Outline: as §1

SMILES: CC(C)Oc1cc(Nc2nc(N[C@@H](C)c3ccc(F)cn3)ncc2Cl)n[nH]1 [AZ23] + CC(=O)Nc1cccc(-n2c(=O)n(C3CC3)c(=O)c3c(Nc4ccc(I)cc4F)n(C)c(=O)c(C)c32)c1 [Trametinib] (partner 0.02 µM)
- relative viability (NCI-H596; first compound 0.01 µM): 0.739
- relative viability (NCI-H596; first compound 0.03162 µM): 0.779
- relative viability (NCI-H596; first compound 0.3162 µM): 0.783
- relative viability (COR-L23; first compound 0.01 µM): 0.446
- relative viability (COR-L23; first compound 0.03162 µM): 0.659
- relative viability (COR-L23; first compound 0.3162 µM): 0.612
- relative viability (HCC-15; first compound 0.01 µM): 0.382
- relative viability (HCC-15; first compound 0.03162 µM): 0.413
- relative viability (HCC-15; first compound 0.3162 µM): 0.243
- relative viability (LK-2; first compound 0.01 µM): 0.949
- relative viability (LK-2; first compound 0.03162 µM): 0.916
- relative viability (LK-2; first compound 0.3162 µM): 0.681
- relative viability (HCC-44; first compound 0.01 µM): 1.1
- relative viability (HCC-44; first compound 0.03162 µM): 0.92
- relative viability (HCC-44; first compound 0.3162 µM): 1.05
- relative viability (NCI-H1437; first compound 0.01 µM): 0.503
- relative viability (NCI-H1437; first compound 0.03162 µM): 0.512
- relative viability (NCI-H1437; first compound 0.3162 µM): 0.651
- relative viability (NCI-H1975; first compound 0.01 µM): 0.387
- relative viability (NCI-H1975; first compound 0.03162 µM): 0.495
- relative viability (NCI-H1975; first compound 0.3162 µM): 0.302
- relative viability (A-427; first compound 0.01 µM): 0.569
- relative viability (A-427; first compound 0.03162 µM): 0.717
- relative viability (A-427; first compound 0.3162 µM): 0.684
- relative viability (SW 900; first compound 0.01 µM): 1.06
- relative viability (SW 900; first compound 0.3162 µM): 0.873
- relative viability (NCI-H520; first compound 0.01 µM): 0.853
- relative viability (NCI-H520; first compound 0.03162 µM): 0.707
- relative viability (NCI-H520; first compound 0.3162 µM): 0.587
- relative viability (COR-L 105; first compound 0.01 µM): 0.432
- relative viability (COR-L 105; first compound 0.03162 µM): 0.371
- relative viability (COR-L 105; first compound 0.3162 µM): 0.478
- relative viability (NCI-H650; first compound 0.01 µM): 0.955
- relative viability (NCI-H650; first compound 0.03162 µM): 0.99
- relative viability (NCI-H650; first compound 0.3162 µM): 0.987
- relative viability (EKVX; first compound 0.01 µM): 0.346
- relative viability (EKVX; first compound 0.03162 µM): 0.351
- relative viability (EKVX; first compound 0.3162 µM): 0.332
- relative viability (HCC-827; first compound 0.01 µM): 0.456
- relative viability (HCC-827; first compound 0.03162 µM): 0.563
- relative viability (HCC-827; first compound 0.3162 µM): 0.557
- relative viability (NCI-H838; first compound 0.01 µM): 0.615
- relative viability (NCI-H838; first compound 0.03162 µM): 0.561
- relative viability (NCI-H838; first compound 0.3162 µM): 0.456
- relative viability (NCI-H1792; first compound 0.01 µM): 0.472
- relative viability (NCI-H1792; first compound 0.03162 µM): 0.347
- relative viability (NCI-H1792; first compound 0.3162 µM): 0.294
- relative viability (NCI-H1666; first compound 0.01 µM): 0.804
- relative viability (NCI-H1666; first compound 0.03162 µM): 0.847
- relative viability (NCI-H1666; first compound 0.3162 µM): 0.903
- relative viability (201T; first compound 0.01 µM): 0.716
- relative viability (201T; first compound 0.03162 µM): 0.731
- relative viability (201T; first compound 0.3162 µM): 0.649
- relative viability (SK-MES-1; first compound 0.03162 µM): 0.578
- relative viability (SK-MES-1; first compound 0.3162 µM): 0.59
- relative viability (NCI-H522; first compound 0.01 µM): 0.894
- relative viability (NCI-H522; first compound 0.03162 µM): 0.796
- relative viability (NCI-H522; first compound 0.3162 µM): 0.617
- relative viability (NCI-H23; first compound 0.03162 µM): 0.364
- relative viability (NCI-H23; first compound 0.3162 µM): 0.361
- relative viability (NCI-H441; first compound 0.01 µM): 0.504
- relative viability (NCI-H441; first compound 0.03162 µM): 0.433
- relative viability (NCI-H441; first compound 0.3162 µM): 0.509
- relative viability (HARA; first compound 0.01 µM): 0.666
- relative viability (HARA; first compound 0.03162 µM): 0.886
- relative viability (HARA; first compound 0.3162 µM): 0.399
- relative viability (LCLC-103H; first compound 0.01 µM): 0.741
- relative viability (LCLC-103H; first compound 0.03162 µM): 0.7
- relative viability (LCLC-103H; first compound 0.3162 µM): 0.655
